The source of these data is US11440923B2, “Substituted macrocyclic indole derivatives” (Bayer Aktiengesellschaft, priority 2017, dated 2022).

One experiment has as its system MV-4-11 cells. Description: Antiproliferation assay MV-4-11 (Assay 7). The following applies: Homo sapiens, MV4-11, 72 h, CellTiter-Glo, read-out: Antiproli MV-4-11 IC50 median. Type of experiment: cell-based. In outline:
(§1)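 Anti-proliferative effect was measured by CellTiter-Glo ATP luminescence after 72 h compound exposure at 37° C, following overnight plating. IC50s were derived using a parallel time-zero plate and DMSO-treated controls as reference points.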
(ATP-based viability assays read luminescence as a measure of living cells.)

The test system of the next experiment is SNU-389 cells. Description: Antiproliferation assay SNU-389 (Assay 7). Type of experiment: cell-based. The following applies: 72 h, read-out: Antiproli SNU-389 IC50. In outline:
as §1

For the next experiment, the system named is SK-BR-3 cells. Description: Antiproliferation assay SK-BR-3 (Assay 7). It is filed as cell-based. The following applies: Homo sapiens, read-out: Antiproli SK-BR-3 IC50 median. Here is the method: (§2) Assessment of the Anti-Proliferative Effect of Compounds in Different Cell Lines
(§3) The impact of compounds on the proliferation of different cell lines was assessed using the CellTiter-Glo® Luminescent Cell Viability reagent from Promega (G7573).
(§4) In parallel, cells were plated in a reference (day 0) plate for time zero determination. Cells were incubated in a humidified incubator at 37° C. overnight.
(§5) Rim wells were excluded. The cells were incubated for 72 h hours in a humidified incubator at 37° C. The day 0 plate was measured by adding 30 μL/well of CTG solution (CellTiter-Glo® Luminescent Cell Viability reagent, Promega G7573) to time zero wells in the reference plate followed by a 10 minutes incubation and luminescence reading at 0.1 ms. using the PHERAstar FS microplate reader (BMG Labtech).
(§6) After 72 h incubation, the treated plates were measured in the same way as the day 0 plate mentioned above. The Bella DRC Master Sheet was used to calculate IC50s, with CI=day 0 values and C0=DMSO control values.

A further experiment deals with A2780 cells. Description: Antiproliferation assay A2780 (Assay 7). It is filed as cell-based. The following applies: Homo sapiens, A2780; 72 h, CellTiter-Glo; read-out: Antiproli A2780 IC50 median. Put shortly:
as §1

For a further experiment, the system named is SUDHL10 cells. Description: Antiproliferation assay SUDHL10 (Assay 7). It is filed as cell-based. The following applies: Homo sapiens, SU-DHL10; 72 h, CellTiter-Glo; read-out: Antiproli SUDHL10 IC50 (median). Here is the method: as §2, §3, §4, §5, §6
The target of another experiment is MCL-1 (Homo sapiens (Human), UniProt Q07820, K194A/K197A/R201A). Description: Protein-compound interaction assay (SPR assay, Assay 9). Type of experiment: binding. The following applies: for Kd: KD (geometric mean), SPR, 25° C.; for koff: read-out: koff (geometric mean), SPR, 25° C.; for kon: read-out: kon (geometric mean), SPR, 25° C. An excerpt:
Assay 9 Protein-Compound Interaction Assay (SPR Assay)
The ability of the compounds described in this invention to bind to MCL-1 may be determined using surface plasmon resonance (SPR). This allows for the quantification of binding in terms of the equilibrium dissociation constant (KD [M]), as well as association and dissociation rate constants (kon [1/Ms] and koff [1/s], respectively). The measurements may be performed using Biacore® T200 or Biacore® S200 instruments (GE Healthcare).
Briefly, carboxymethylated dextran biosensor chips (Series S Sensor Chip CMS, GE Healthcare) were activated with 1-ethyl-3-(3-dimethylaminopropyl)-carbodiimide hydrochloride (EDC) and N-hydroxysuccinimide (NHS) according to the supplier's instructions. MBP-MCL-1 was diluted in 1×PBS-P+ (GE Healthcare) and injected on the activated chip surface. Subsequently, a solution of 1 M ethanolamine-HCl (GE Healthcare) was injected to block unreacted groups, resulting in approximately 400-2500 response units (RU) of immobilized protein. A reference surface was generated by treatment with NHS-EDC and ethanolamine-HCl. […] Compounds were injected for 60 s followed by a dissociation time of up to 1000 s.
The double-referenced sensorgrams were fit to a simple reversible Langmuir 1:1 reaction mechanism as implemented in the Biacore® T200 and S200 evaluation software (T200 evaluation software version 2.0 and S200 evaluation software version 1.0, GE Healthcare).

Another experiment relates to SK-MEL-2 cells. Description: Antiproliferation assay SK-MEL-2 (Assay 7). Type of experiment: cell-based. The following applies: Homo sapiens, SK-MEL-2, 72 h, read-out: Antiproli SK-MEL-2 IC50 median. In outline: as §1
The subject of a further experiment is A-431 cells. Description: Antiproliferation assay A-431 (Assay 7). Type of experiment: cell-based. The following applies: Homo sapiens, A-431, 72 h, read-out: Antiproli A-431 IC50 median. In outline:
as §1

The test system of another experiment is DMS-114 cells. Description: Antiproliferation assay DMS-114 (Assay 7). It is filed as cell-based. The following applies: Homo sapiens, DMS-114, 72 h, read-out: Antiproli DM-S114 IC50 median. Put shortly:
as §1

Another experiment deals with PA-1 cells. Description: Antiproliferation assay PA-1 (Assay 7). Type of experiment: cell-based. The following applies: Homo sapiens, PA-1, 72 h, read-out: Antiproli PA-1 IC50 median. In outline:
as §1

Another experiment concerns SNU-16 cells. Description: Antiproliferation assay SNU-16 (Assay 7). It is filed as cell-based. The following applies: Homo sapiens, SNU-16, 72 h, read-out: Antiproli SNU-16 IC50 median. Put shortly: as §1

Like-named read-outs stand apart in the source and are kept apart here.

One may read the IC50 as the point on the concentration scale where inhibition reaches its midpoint. The term Kd denotes the equilibrium constant for the complex coming apart. A word on the koff: it is a measure of how fast the partners let go of each other. For orientation: kon means a measure of how fast the partners come together.

Sequence of MCL-1 (Q07820 whole entry K194A/K197A/R201A, looked up): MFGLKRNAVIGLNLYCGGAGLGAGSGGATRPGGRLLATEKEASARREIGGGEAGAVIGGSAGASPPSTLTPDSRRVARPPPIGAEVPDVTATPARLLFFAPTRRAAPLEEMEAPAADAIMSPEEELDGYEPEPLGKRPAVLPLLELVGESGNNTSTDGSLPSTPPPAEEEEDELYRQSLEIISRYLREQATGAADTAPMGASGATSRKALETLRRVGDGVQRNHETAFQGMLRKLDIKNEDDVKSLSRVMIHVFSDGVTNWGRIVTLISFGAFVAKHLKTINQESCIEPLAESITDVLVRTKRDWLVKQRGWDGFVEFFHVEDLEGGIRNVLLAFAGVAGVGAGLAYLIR

Turning to `Cc1c2c(nn1C)C(CCN1CCOCC1)OCCCCn1c(C(=O)O)c(CCCOc3cccc4cc(F)ccc34)c3ccc(Cl)c-2c31` (racemic) [Example 16, (rac)-4-chloro-7-{3-[(6-fluoronaphthalen-1-yl)oxy]propyl}-2,3-dimethyl-15-[2-(morpholin-4-yl)ethyl]-2,10,11,12,13,15-hexahydropyrazolo[4′,3′:9,10][1,6]oxazacycloundecino[8,7,6-hi]indole-8-carboxylic Acid], the IC50 with MV-4-11 cells came to 34.6 nM; in the experiment with SNU-389 cells (CellTiter-Glo), 118 nM; in the experiment with SK-BR-3 cells (SK-BR-3, 72 h, CellTiter-Glo), 108 nM.

With `CCc1c2c(nn1C)C(CCN1CCOCC1)OCCCCn1c(C(=O)O)c(CCCOc3cccc4ccccc34)c3ccc(F)c-2c31` (racemic) [Example 10, (rac)-3-ethyl-4-fluoro-2-methyl-15-[2-(morpholin-4-yl)ethyl]-7-[3-(naphthalen-1-yloxy)propyl]-2,10,11,12,13,15-hexahydropyrazolo[4′,3′:9,10][1,6]oxazacycloundecino[8,7,6-hi]indole-8-carboxylic Acid], the IC50 was 110 nM in the experiment with MV-4-11 cells, 3.43 µM with A2780 cells and 140 nM with SUDHL10 cells. Also, on MCL-1, the affinity, expressed as Kd, was 1.1 nM. Further, the off-rate constant (koff) at MCL-1 was found to be 0.01 s⁻¹. Further, the kon at MCL-1 was 9e+06 M⁻¹ s⁻¹.

With `Cc1c2c(nn1C)C(CCN1CCOCC1)OCCCCn1c(C(=O)O)c(CCCOc3cccc4cc(F)ccc34)c3ccc(F)c-2c31` (single isomer, unassigned; enantiomer 1) [Example 20, 4-fluoro-7-{3-[(6-fluoronaphthalen-1-yl)oxy]propyl}-2,3-dimethyl-15-[2-(morpholin-4-yl)ethyl]-2,10,11,12,13,15-hexahydropyrazolo[4′,3′:9,10][1,6]oxazacycloundecino[8,7,6-hi]indole-8-carboxylic Acid—N-ethylethanamine (Enantiomer 1)], the IC50 in the experiment on SNU-389 cells came out at 437 nM; in the experiment with SK-MEL-2 cells, 607 nM; with A-431 cells it was 462 nM; in the experiment with SK-BR-3 cells (SK-BR-3, 72 h) it was 173 nM; with DMS-114 cells, 222 nM; with PA-1 cells it was 304 nM. Further, in the experiment on SNU-16 cells, the concentration for half-maximal inhibition (IC50) came out at 397 nM. Further, binding on MCL-1 was put at a Kd of 0.56 nM. The koff on MCL-1 stood at 0.018 s⁻¹. Also, the kon at MCL-1 is 3.2e+07 M⁻¹ s⁻¹.
